Laboratory results from patent publication US20250121076A1, “POLYPEPTIDE DRUG CONJUGATE HAVING NOVEL STRUCTURE AND APPLICATION THEREOF” (MEDSHINE DISCOVERY INC., priority 2021, published 2025).
Structures can show the parent of a compound that is named as a salt. Starred links: 1 amine or outer side, 2 acyl side, 3 side chain; linkers in the order of their positions; H or OH if unused. Positions of bridges follow the written chain, without caps; N, C: chain ends. Non-standard residues stand in square brackets, D forms with d. Residues, ends and D or L forms follow the SMILES beside them. Chains are numbered I, II in the order given. *: point of attachment. TATA = O=C(CC[*:1])N1CN(C(=O)CC[*:2])CN(C(=O)CC[*:3])C1; Dolaproine = CO[C@@H]([C@@H]1CCCN1)[C@@H](C)C(=O)O; Dil = CC[C@H](C)[C@H](NC)[C@@H](CC(=O)O)OC; X2 = O=C(CCCC(=O)[*:2])NCCC(=O)[*:1]; PABC = O=C(OCc1ccc(N[*:1])cc1)[*:2]; X1 = C[C@@H](N*)[C@@H](O)c1ccccc1; Hyp = O=C(O)[C@@H]1C[C@@H](O)CN1; hArg = N=C(N)NCCCC[C@H](N)C(=O)O; Cit = NC(=O)NCCC[C@H](N)C(=O)O; Pen = CC(C)(S)[C@H](N)C(=O)O; NMeV = CN[C@H](C(=O)O)C(C)C; hCys = N[C@@H](CCS)C(=O)O; Sar = CNCC(=O)O

Key:
[1] = Pharmacokinetic analysis in Cynomolgus macaque plasma; type: in vivo, Cynomolgus macaques; settings: MMAE as potential metabolite in plasma after single IV 1 mg/kg acetate salt of PDC_8, Cynomolgus macaques
Experimental: To test the pharmacokinetics of the compounds of the present invention in Cynomolgus macaques.
(§1) The pharmacokinetic characteristics of the compound after intravenous injection and oral administration were tested in Cynomolgus macaques according to a standard protocol. The compound of the present invention was formulated into a clear solution using 50 mM acetate buffer (pH=5) in 10% sucrose as a vehicle. Two Cynomolgus macaques were given a single intravenous injection of 1 mg/kg of the compound to be tested. Whole blood was collected at time points of 0.083, 0.25, 0.5, 1, 2, 4, 8, and 24 hours after administration to get plasma. The concentration of the compound to be tested and the concentration of its potential metabolite MMAE were analyzed by the LC-MS/MS method, and the pharmacokinetic parameters were calculated by Phoenix WinNonlin software.

[2] = In vivo pharmacokinetic analysis in mice; set-up: species or system CD-1 mice; settings: MMAE as potential metabolite in plasma after single IV 2 mg/kg acetate salt of PDC_8, CD-1 mice
Experimental: To test the pharmacokinetics of the compounds of the present invention in CD-1 mice
as §1, with “in CD-1 mice” for “in Cynomolgus macaques”, “Two mice” for “Two Cynomolgus macaques”, “of 2” for “of 1”, “pharmacokinetic parameters, such as maximal concentration (Cmax), clearance (Cl), half-life (T1/2), […] (Vdss), and area under the concentration-time curve (AUC0-last),” for “pharmacokinetic parameters”

[3] = Pharmacokinetic analysis in rat plasma (6.1, 2 mg/kg); type: in vivo, SD rats; settings: MMAE as potential metabolite in plasma after single IV 2 mg/kg acetate salt of PDC_8, SD rats
Experimental: (§2) Experimental purpose: To test the pharmacokinetics of the compounds of the present invention in SD rats.
as §1, with “6.1 The pharmacokinetic” for “The pharmacokinetic”, “tested in rats according to” for “tested in Cynomolgus macaques according to”, “The compound to be tested was formulated” for “The compound of the present invention was formulated”, “vehicle. Two SD rats were given” for “vehicle. Two Cynomolgus macaques were given”, “injection of 2 mg/kg of” for “injection of 1 mg/kg of”

[4] = Pharmacokinetic analysis in rat plasma at different doses (6.2); type: in vivo, SD rats
Experimental: as §2
6.2 The pharmacokinetic characteristics of the compound after intravenous injection and oral administration were tested in rats according to a standard protocol. The compound to be tested was formulated into a clear solution using 50 mM acetate buffer (pH=5) in 10% sucrose as a vehicle. Three male SD rats were given a single intravenous injection of 2.5 mg/kg, 3.75 mg/kg, or 5 mg/kg of the compound to be tested. Whole blood was collected at time points of 0.083, 0.25, 0.5, 1, 4, and 24 hours after administration to get plasma. The concentration of the compound to be tested and the concentration of its potential metabolite MMAE were analyzed by the LC-MS/MS method, and the pharmacokinetic parameters were calculated.

Human EphA2 = target: T1, Human EphA2 (Homo sapiens, UniProt P29317); experiment: Binding capacity test to EphA2 protein (SPR, Biacore 8K)
T1 construct: purchased Sino Biological 13926-H08HD
Experimental: To detect the affinity of the compound to be tested to the target protein EphA2 using the SPR method.
• Biacore 8K (GE Healthcare). • 96-well Plate (Cat #650101, greiner bio-one) • CM5 chip (Cat #BR-1005-30, GE Healthcare) • Amine Coupling Kit (Cat #BR-1000-50, GE Healthcare) EDC NHS 1 M ethanolamine. • 10 mM sodium acetate pH 4.5 (Cat #BR-1003-50, GE Healthcare) • DMSO (Cat #D4540, Sigma) • P20 (Cat #BR-1000-54, GE Healthcare). • PBS (Cat #BR-1006-72, GE Healthcare). • EphA2 (Cat #13926-H08HD, Sino Biological)
In this experiment, the amino coupling method was used. The target protein EphA2 was directly immobilized on the CM5 chip using Biacore 8K. The compound to be tested as an analyte was then diluted to a required concentration gradient with a buffer (10 mM PBS, pH 7.4, 137 mM NaCl, 2.7 mM KCl, 5% DMSO, and 0.05% P20) for multi-cycle kinetic detection, in which each cycle is formed by 180 seconds of sample injection and 180 seconds of dissociation, and then the next cycle was performed, to obtain kinetic analysis data on the affinity of the target protein EphA2 to the compound to be tested. The final data were subjected to Kinetics fitting analysis based on a 1:1 model using Biacore Insight Evaluation Software (V 2.0.15.12933).
1) Preparation of the buffer: 10 mM PBS, pH 7.4, 137 mM NaCl, 2.7 mM KCl, 5% DMSO, and 0.05% P20.
2) Activation of the CM5 chip: The CM5 chip was activated with 400 mM EDC and 100 mM NHS at a flow rate of 10 μL/min for 420 seconds.
3) Coupling of the target protein: The target protein was diluted to 10 μg/mL with 10 mM sodium acetate (pH 4.5) and coupled at a flow rate of 10 μL/min for 284 s. The 1 #, 2 #, and 3 #channels on the chip were used in the experiment, and the coupling results were 1639.9RU, 1747.8RU, and 1702.2RU, respectively.
4) Blocking of the CM5 chip: The CM5 chip was blocked with 1 M ethanolamine at a flow rate of 10 μL/min for 420 seconds.
5) Analyte concentration: The compound to be tested was diluted with the buffer. The compound to be tested was diluted from 100 nM to 0.78 nM in a 2-fold gradient.
6) Sample injection analysis: Each concentration of the working solution of the compound to be tested corresponded to one cycle, with a flow rate of 30 μL/min for binding for 180 seconds and dissociating for 180 seconds. The last cycle was a 5% DMSO solvent correction cycle. 7) All results were subjected to kinetics fitting analysis based on a 1:1 model.
The experimental data of five effective concentrations of the compounds of the present invention were selected for Kinetics fitting analysis based on a 1:1 model using Biacore Insight Evaluation Software (V 2.0.15.12933).

[5] = MMAE as potential metabolite after single IV 2.5 mg/kg acetate salt of PDC_8, male SD rats
[6] = MMAE as potential metabolite after single IV 3.75 mg/kg acetate salt of PDC_8, male SD rats
[7] = MMAE as potential metabolite after single IV 5 mg/kg acetate salt of PDC_8, male SD rats

T1 sequence (P29317 24-534 limits assumed): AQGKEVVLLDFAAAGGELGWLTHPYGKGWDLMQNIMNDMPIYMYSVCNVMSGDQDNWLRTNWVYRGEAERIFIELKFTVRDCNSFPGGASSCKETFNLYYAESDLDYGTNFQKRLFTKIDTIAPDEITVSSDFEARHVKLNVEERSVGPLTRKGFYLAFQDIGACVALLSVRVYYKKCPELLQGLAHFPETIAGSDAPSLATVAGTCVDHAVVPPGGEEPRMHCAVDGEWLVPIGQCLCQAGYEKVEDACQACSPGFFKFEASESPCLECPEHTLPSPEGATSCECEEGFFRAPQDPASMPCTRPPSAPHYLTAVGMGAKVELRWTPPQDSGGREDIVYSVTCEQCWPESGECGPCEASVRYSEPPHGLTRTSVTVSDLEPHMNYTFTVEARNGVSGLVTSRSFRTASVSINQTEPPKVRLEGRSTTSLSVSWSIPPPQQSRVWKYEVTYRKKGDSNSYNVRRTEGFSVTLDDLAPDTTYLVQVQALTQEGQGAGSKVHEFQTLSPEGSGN

## CC[C@H](C)[C@@H]([C@@H](CC(=O)N1CCC[C@H]1[C@H](OC)[C@@H](C)C(=O)N[C@H](C)[C@@H](O)c1ccccc1)OC)N(C)C(=O)[C@@H](NC(=O)[C@@H](NC)C(C)C)C(C)C [MMAE, monomethyl auristatin E] (H-[NMeV]V[Dil][Dolaproine]-X1)
[1]
  AUC0-last: 0.0288 µM·h
  Cmax: 5.6 nM
[2]
  AUC0-last: 0.0515 µM·h
  Cmax: 55 nM
[3]
  AUC0-last: 0.0374 µM·h
  Cmax: 23.5 nM
[4]; [5]
  AUC0-last: 0.058 µM·h
  Cmax: 29 nM
[4]; [6]
  AUC0-last: 0.185 µM·h
  Cmax: 39 nM
[4]; [7]
  AUC0-last: 0.435 µM·h
  Cmax: 52 nM

## CC[C@H](C)[C@@H]([C@@H](CC(=O)N1CCC[C@H]1[C@H](OC)[C@@H](C)C(=O)N[C@H](C)[C@@H](O)c1ccccc1)OC)N(C)C(=O)[C@@H](NC(=O)[C@H](C(C)C)N(C)C(=O)OCc1ccc(NC(=O)[C@H](CCCNC(N)=O)NC(=O)[C@@H](NC(=O)CCCC(=O)NCCC(=O)N(C)CC(=O)N(C)CC(=O)N(C)CC(=O)N(C)CC(=O)N(C)CC(=O)N(C)CC(=O)N(C)CC(=O)N(C)CC(=O)N(C)CC(=O)N(C)CC(=O)N[C@H]2CCCCNC(=O)C[C@@H](C(=O)N[C@H]3CSCCC(=O)N4CN5CN(C4)C(=O)CCSC[C@H](NC(=O)[C@H](CC(C)C)NC(=O)[C@@H]4CCCN4C(=O)[C@H](CC(N)=O)NC(=O)[C@H](C(C)C)NC(=O)[C@H](CC(C)C)NC(=O)[C@@H]4C[C@@H](O)CN4C3=O)C(=O)N[C@@H](CC(C)C)C(=O)N[C@@H](Cc3c[nH]cn3)C(=O)N3CCC[C@H]3C(=O)N[C@H](CC(=O)O)C(=O)N[C@@H](Cc3c[nH]c4ccccc34)C(=O)N[C@@H](CCCCNC(=N)N)C(=O)N[C@H](C(N)=O)CSCCC5=O)NC(=O)[C@H](CCCCNC(=N)N)NC2=O)C(C)C)cc1)C(C)C [Acetate salt of PDC_4] (I: [Sar][Sar][Sar][Sar][Sar][Sar][Sar][Sar][Sar][Sar]K[hArg]DC[Hyp]LVNPLCLHP[dD]W[hArg]C-NH2 / II: V[Cit][PABC][NMeV]V[Dil][Dolaproine]-X1; lactam I:11-I:13; linker I:14-I:21-I:28 via TATA; linker I:N-II:N via X2)
Human EphA2
  Kd: 13.3 nM

## CC[C@H](C)[C@@H]([C@@H](CC(=O)N1CCC[C@H]1[C@H](OC)[C@@H](C)C(=O)N[C@H](C)[C@@H](O)c1ccccc1)OC)N(C)C(=O)[C@@H](NC(=O)[C@H](C(C)C)N(C)C(=O)OCc1ccc(NC(=O)[C@H](CCCNC(N)=O)NC(=O)[C@@H](NC(=O)CCCC(=O)NCCC(=O)N(C)CC(=O)N(C)CC(=O)N(C)CC(=O)N(C)CC(=O)N(C)CC(=O)N(C)CC(=O)N(C)CC(=O)N(C)CC(=O)N(C)CC(=O)N(C)CC(=O)N[C@H]2CCCCNC(=O)C[C@@H](C(=O)N[C@@H]3C(=O)N4C[C@H](O)C[C@H]4C(=O)N[C@@H](CC(C)C)C(=O)N[C@@H](C(C)C)C(=O)N[C@@H](CC(N)=O)C(=O)N4CCC[C@H]4C(=O)N[C@@H](CC(C)C)C(=O)N[C@H]4CSCCC(=O)N5CN(CN(C5)C(=O)CCSC3(C)C)C(=O)CCSC[C@@H](C(N)=O)NC(=O)[C@H](CCCCNC(=N)N)NC(=O)[C@H](Cc3c[nH]c5ccccc35)NC(=O)[C@@H](CC(=O)O)NC(=O)[C@@H]3CCCN3C(=O)[C@H](Cc3c[nH]cn3)NC(=O)[C@H](CC(C)C)NC4=O)NC(=O)[C@H](CCCCNC(=N)N)NC2=O)C(C)C)cc1)C(C)C [Acetate salt of PDC_7] (I: [Sar][Sar][Sar][Sar][Sar][Sar][Sar][Sar][Sar][Sar]K[hArg]D[Pen][Hyp]LVNPLCLHP[dD]W[hArg]C-NH2 / II: V[Cit][PABC][NMeV]V[Dil][Dolaproine]-X1; lactam I:11-I:13; linker I:14-I:21-I:28 via TATA; linker I:N-II:N via X2)
Human EphA2
  Kd: 8.39 nM

## CC[C@H](C)[C@@H]([C@@H](CC(=O)N1CCC[C@H]1[C@H](OC)[C@@H](C)C(=O)N[C@H](C)[C@@H](O)c1ccccc1)OC)N(C)C(=O)[C@@H](NC(=O)[C@H](C(C)C)N(C)C(=O)OCc1ccc(NC(=O)[C@H](CCCNC(N)=O)NC(=O)[C@@H](NC(=O)CCCC(=O)NCCC(=O)N(C)CC(=O)N(C)CC(=O)N(C)CC(=O)N(C)CC(=O)N(C)CC(=O)N(C)CC(=O)N(C)CC(=O)N(C)CC(=O)N(C)CC(=O)N(C)CC(=O)N[C@H]2CCCCNC(=O)C[C@@H](C(=O)N[C@H]3CCSCCC(=O)N4CN5CN(C4)C(=O)CCSC[C@H](NC(=O)[C@H](CC(C)C)NC(=O)[C@@H]4CCCN4C(=O)[C@H](CC(N)=O)NC(=O)[C@H](C(C)C)NC(=O)[C@H](CC(C)C)NC(=O)[C@@H]4C[C@@H](O)CN4C3=O)C(=O)N[C@@H](CC(C)C)C(=O)N[C@@H](Cc3c[nH]cn3)C(=O)N3CCC[C@H]3C(=O)N[C@H](CC(=O)O)C(=O)N[C@@H](Cc3c[nH]c4ccccc34)C(=O)N[C@@H](CCCCNC(=N)N)C(=O)N[C@H](C(N)=O)CSCCC5=O)NC(=O)[C@H](CCCCNC(=N)N)NC2=O)C(C)C)cc1)C(C)C [Acetate salt of PDC_6] (I: [Sar][Sar][Sar][Sar][Sar][Sar][Sar][Sar][Sar][Sar]K[hArg]D[hCys][Hyp]LVNPLCLHP[dD]W[hArg]C-NH2 / II: V[Cit][PABC][NMeV]V[Dil][Dolaproine]-X1; lactam I:11-I:13; linker I:14-I:21-I:28 via TATA; linker I:N-II:N via X2)
Human EphA2
  Kd: 5.67 nM
